Test results: patent US20140309137A1, “GENE EXPRESSION PROFILES ASSOCIATED WITH LEAN PHENOTYPE AND USES THEREOF” (NESTEC SA, priority 2008, published 2014)

Legend:
[1] = Body composition and body fat analysis after CLA, high protein diet or exercise treatment; type: in vivo, Sprague Dawley rats; settings: rats
Excerpt: (§1) Four-week old male Sprague Dawley rats were allowed to acclimate for two weeks on a control diet comprising AIN-93M (American Institute of Nutrition purified diet formula for maintenance of mature rodents). Rats were divided into four groups of 12. Group 1 was fed the control diet supplemented with CLA (Table 1). Group 2 was fed a modified diet increased in protein and decreased in carbohydrate (Table 1). Group 3 was fed the control diet, and was given the opportunity to engage in supplemental exercise. Specifically, a running wheel was placed in the cage of each rat in group 3, and daily use of the wheel was monitored by recording each turn of the wheel using a sensor connected to a computer. Group 4 was fed the control diet (Table 1).
(§2) Measurements were taken at 7 and 60 days after initiation of the feeding or exercise protocols. At the completion of the 60-day feeding protocol, all animals were sacrificed and analyses were performed.
Body composition analyses were performed on the test animals.

[2] = Biochemical analyses of blood (fasting glucose, glucagon, insulin); type: in vivo, Sprague Dawley rats; settings: for Fasting blood glucagon / Fasting blood glucose / Fasting blood insulin: rats
Excerpt: as §1, §2

[3] = after 60 days, compared with the control diet and the exercise treatment

conjugated linoleic acid [CLA]
Body fat ([1]; 60 days, compared with the Control group): reduced body fat | Retroperitoneal fat ([1]; following 60 days of treatment): 10.07 g | Total fat pad ([1]; following 60 days of treatment): 31.80 g | Blood glucose level [2, 3]: reduced blood glucose level | Blood insulin [2, 3]: reduced blood insulin | Fasting blood glucagon ([2]; Day 7): 111.65 pg/mL | Fasting blood glucose ([2]; Day 7): 10.53 mmol/L | Fasting blood insulin ([2]; Day 7): 233.58 pmol/L | Fasting blood glucagon ([2]; Day 60): 120.77 pg/mL | Fasting blood glucose ([2]; Day 60): 11.08 mmol/L | Fasting blood insulin ([2]; Day 60): 172.66 pmol/L
